pKd: −log10 of the molar value. Where two headings read alike, the source gives them in different places.
Legend:
Cbl-b (residues 36-427) = Cbl-b (residues 36-427) (Homo sapiens, UniProt Q13191); assay: Cbl-b binding assay (SPR, Biacore T200); settings: 20° C., 1:1 binding model
Procedure, shortened: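 Steps: capture protein on NeutrAvidin surface; inject compound dilutions (8 or 10 points from 100 or 50 μM) 50 s; allow 90-180 s dissociation; regenerate 20 s with 0.3 M NaCl. Runs at 20° C in HEPES pH 7.5/100 mM NaCl/2% DMSO; 1:1 fitting.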

T-cell = assay: IL-2 secretion from T-cells stimulated with anti-CD3 antibody alone (Biological Example 2); type: cell-based, human; settings: T-cell; for fold induction at 8 µM: 8 μM Cbl-b inhibitor
[1] = fold change over baseline, 1 μM Cbl-b inhibitor, primary human total T-cells, read-out: IL-2 secretion Anti-CD3 stimulation
[2] = fold change over baseline, primary human total T-cells, read-out: IL-2 secretion Anti-CD3 stimulation
[3] = Homo sapiens, 1 μM Cbl-b inhibitor, fold change over baseline (anti-CD3/anti-CD28 stimulated T-cells without inhibitor), read-out: IL-2 secretion Anti-CD3 stimulation

Sequence of Cbl-b (residues 36-427) (Q13191 36-427): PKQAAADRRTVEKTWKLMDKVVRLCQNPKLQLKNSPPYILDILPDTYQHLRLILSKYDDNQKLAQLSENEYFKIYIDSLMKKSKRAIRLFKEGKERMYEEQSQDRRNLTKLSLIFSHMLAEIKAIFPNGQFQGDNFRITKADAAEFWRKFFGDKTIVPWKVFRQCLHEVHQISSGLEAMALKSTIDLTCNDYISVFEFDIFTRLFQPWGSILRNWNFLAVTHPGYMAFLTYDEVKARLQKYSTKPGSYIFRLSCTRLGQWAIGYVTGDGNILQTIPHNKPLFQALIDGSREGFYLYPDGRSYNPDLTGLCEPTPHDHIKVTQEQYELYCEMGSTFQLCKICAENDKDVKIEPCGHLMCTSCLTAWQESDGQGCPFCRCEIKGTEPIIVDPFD

Compound | pKd (Cbl-b (residues 36-427)) | fold induction at 1 µM (T-cell; [1]) | fold induction at 8 µM (T-cell; [2]) | fold induction at 1 µM (T-cell; [3]) | fold induction at 1 µM (T-cell; Homo sapiens, read-out: IL-2 secretion, Anti-CD3 stimulation, fold change over baseline)
C[C@H](Cc1nncn1C)c1cccc(NC(=O)c2cc(O[C@@H]3CC[C@@H](O)C3)ccn2)c1 (relative stereo) [Compound 205, trans-4-(3-hydroxycyclopentyloxy)-N-(3-((R)-1-(4-methyl-4H-1,2,4-triazol-3-yl)propan-2-yl)phenyl)picolinamide] | 6.52 to 7.00 | 0.051 to 0.1 | 0.101 to 0.15 |  | 
C[C@H](c1cc2c(c(C(F)(F)F)c1)CN(c1cccc(C3([C@H](F)c4nncn4C)COC3)c1)C2=O)N1CCC2(CC2)C1 (stereo in doubt) [Example 575, 6-((R)-1-(5-Azaspiro[2.4]heptan-5-yl)ethyl)-2-(3-(3-((S)-fluoro(4-methyl-4H-1,2,4-triazol-3-yl)methyl)oxetan-3-yl)phenyl)-4-(trifluoromethyl)isoindolin-1-one] |  |  |  | > 0.201 | 
Cc1ccc(C(=O)Nc2cccc([C@H](C)Sc3nncn3C)c2)nc1C1CC1 [Compound 54, (S)-6-cyclopropyl-5-methyl-N-(3-(1-((4-methyl-4H-1,2,4-triazol-3-yl)thio)ethyl)phenyl)picolinamide] | 6.52 to 7.00 | < 0.05 | 0.151 to 0.2 |  | 
Cc1cc(C(=O)Nc2cccc([C@H](C)Sc3nncn3C)c2)nc(C(F)(F)F)c1 [Compound 65, (S)-4-methyl-N-(3-(1-((4-methyl-4H-1,2,4-triazol-3-yl)thio)ethyl)phenyl)-6-(trifluoromethyl)picolinamide] | 6.52 to 7.00 | < 0.05 | 0.101 to 0.15 |  | 
C[C@H](Sc1nncn1C)c1cccc(NC(=O)c2cc(C3CC3)cc(C(F)(F)F)n2)c1 [Compound 67, (S)-4-cyclopropyl-N-(3-(1-((4-methyl-4H-1,2,4-triazol-3-yl)thio)ethyl)phenyl)-6-(trifluoromethyl)picolinamide] | 6.52 to 7.00 | < 0.05 | 0.101 to 0.15 |  | 
C[C@H](Sc1nncn1C)c1cccc(NC(=O)c2cccc(C3CC3)n2)c1 [Compound 72, (S)-6-cyclopropyl-N-(3-(1-((4-methyl-4H-1,2,4-triazol-3-yl)thio)ethyl)phenyl)picolinamide] | 6.52 to 7.00 | 0.051 to 0.1 | 0.151 to 0.2 |  | 
C[C@H](Sc1nncn1C)c1cccc(NC(=O)c2ccnc(C3CC3)n2)c1 [Compound 76, 2-cyclopropyl-A-[3-[(1S)-1-[(4-methyl-1,2,4-triazol-3-yl)sulfanyl]ethyl]phenyl]pyrimidine-4-carboxamide] | 6.52 to 7.00 | < 0.05 | 0.051 to 0.1 |  | 
C[C@H](Sc1nncn1C)c1cccc(NC(=O)c2ccc(CO)c(C3CC3)n2)c1 [Compound 89, 6-cyclopropyl-5-(hydroxymethyl)-N-[3-[(1S)-1-[(4-methyl-1,2,4-triazol-3-yl)sulfanyl]ethyl]phenyl]pyridine-2-carboxamide] | 6.52 to 7.00 | < 0.05 | 0.101 to 0.15 |  | 
C[C@H](Sc1nncn1C)c1cccc(NC(=O)c2ccc(F)c(C3CC3)n2)c1 [Compound 91, 6-Cyclopropyl-5-fluoro-N-[3-[(1S)-1-[(4-methyl-1,2,4-triazol-3-yl)sulfanyl]ethyl]phenyl]pyridine-2-carboxamide] | 6.52 to 7.00 | < 0.05 | 0.101 to 0.15 |  | 
C[C@H](Sc1nncn1C)c1cccc(NC(=O)c2ccc(C#N)c(C3CC3)n2)c1 [Compound 92, 5-cyano-6-cyclopropyl-N-[3-[(1S)-1-[(4-methyl-1,2,4-triazol-3-yl)sulfanyl]ethyl]phenyl]pyridine-2-carboxamide] | 6.52 to 7.00 | < 0.05 | 0.101 to 0.15 |  | 
COc1ccc(C(=O)Nc2cccc([C@H](C)Sc3nncn3C)c2)nc1C1CC1 [Compound 93, 6-cyclopropyl-5-methoxy-N-[3-[(1S)-1-[(4-methyl-1,2,4-triazol-3-yl)sulfanyl]ethyl]phenyl]pyridine-2-carboxamide] | 6.52 to 7.00 | < 0.05 | 0.101 to 0.15 |  | 
C[C@H](Cc1nncn1C)c1cccc(NC(=O)c2cc(C3CC3)nc(C3CC3)n2)c1 [Compound 193, (R)-2,6-dicyclopropyl-N-(3-(1-(4-methyl-4H-1,2,4-triazol-3-yl)propan-2-yl)phenyl)pyrimidine-4-carboxamide] | > 7.00 | > 0.201 | > 0.201 |  | 
Cc1cc(C(=O)Nc2cccc([C@H](C)Cc3nncn3C)c2)nc(C(F)(F)F)n1 [Compound 194, (R)-6-methyl-N-(3-(1-(4-methyl-4H-1,2,4-triazol-3-yl)propan-2-yl)phenyl)-2-(trifluoromethyl)pyrimidine-4-carboxamide] | 6.52 to 7.00 | > 0.201 | > 0.201 |  | 
C[C@H](Cc1nncn1C)c1cccc(NC(=O)c2nc3c(C(F)(F)F)cccc3[nH]2)c1 [Compound 196, N-[3-[(1R)-1-methyl-2-(4-methyl-1,2,4-triazol-3-yl)ethyl]phenyl]-4-(trifluoromethyl)-1H-benzimidazole-2-carboxamide] | 6.52 to 7.00 | > 0.201 | > 0.201 |  | 
C[C@H](Cc1nncn1C)c1cccc(NC(=O)c2ccnc(C3CC3)n2)c1 [Compound 199, (R)-2-cyclopropyl-N-(3-(1-(4-methyl-4H-1,2,4-triazol-3-yl)propan-2-yl)phenyl)pyrimidine-4-carboxamide] | 6.52 to 7.00 | > 0.201 | > 0.201 |  | 
C[C@H](Cc1nncn1C)c1cccc(NC(=O)c2ccc(CO)c(C3CC3)n2)c1 [Compound 203, 6-cyclopropyl-5-(hydroxymethyl)-N-[3-[(2R)-1-(4-methyl-4H-1,2,4-triazol-3-yl)propan-2-yl]phenyl]pyridine-2-carboxamide] | > 7.00 | > 0.201 | > 0.201 |  | 
CN1CC2CCC(C1)N2c1cc2c(c(C(F)(F)F)c1)CN(c1cccc(C3(Cc4nncn4C)COC3)c1)C2=O [Compound 386, 2-(3-(3-((4-Methyl-4H-1,2,4-triazol-3-yl)methyl)oxetan-3-yl)phenyl)-6-(3-methyl-3,8-diazabicyclo[3.2.1]octan-8-yl)-4-(trifluoromethyl)isoindolin-1-one] |  |  |  |  | > 0.201
Cn1cnnc1CC1(c2cccc(NC(=O)c3cc(CN4CC[C@H](F)C4)cc(C4CC4)n3)c2)COC1 [Compound 496, 6-cyclopropyl-4-{[(3S)-3-fluoropyrrolidin-1-yl]methyl}-N-(3-{3-[(4-methyl-1,2,4-triazol-3-yl)methyl]oxetan-3-yl}phenyl)pyridine-2-carboxamide] | > 7.00 |  |  |  | 
C[C@@H](c1cc2c(c(C(F)(F)F)c1)CN(c1cccc(C3(Cc4nncn4C)COC3)c1)C2=O)N1CCC(C)(F)CC1 [Example 553a, (S)-6-(1-(4-fluoro-4-methylpiperidin-1-yl)ethyl)-2-(3-(3-((4-methyl-4H-1,2,4-triazol-3-yl)methyl)oxetan-3-yl)phenyl)-4-(trifluoromethyl)isoindolin-1-one] | > 7.00 |  |  |  | 
C[C@@H]1CN(Cc2cc3c(c(C(F)(F)F)c2)CN(c2cccc(C4(Cc5nncn5C)COC4)c2)C3=O)CCO1 [Example 663b, (R)-2-(3-(3-((4-methyl-4H-1,2,4-triazol-3-yl)methyl)oxetan-3-yl)phenyl)-6-((2-methylmorpholino)methyl)-4-(trifluoromethyl)isoindolin-1-one] |  |  |  | > 0.201 | 

Source: patent US20220324835A1 (Nurix Therapeutics, Inc., priority 2018, published 2022)
